Measured values taken from patent US20230373974A1, “MODULATORS OF CYSTIC FIBROSIS TRANSMEMBRANE CONDUCTANCE REGULATOR” (VERTEX PHARMACEUTICALS INCORPORATED, priority 2020, published 2023).
pEC50: −log10 of the molar value.

Target: T1, F508del in NIH 3T3 cells (Homo sapiens, UniProt P13569, DEL508-508)
T1 construct: expressed in transfected cells
Assay: 3T3 assay: membrane potential optical assay for F508del correction
Assay type: cell-based, mouse
Settings: F508del NIH 3T3 cells; for pEC50: incubated with compound 18-24 hours at 37° C., forskolin activation; for Emax: NIH3T3, efficacy compared to lumacaftor in combination with acutely added 300 nM Ivacaftor, read-out: 3T3 Max Activity (%)
Description: Membrane Potential Optical Methods for Assaying F508del Modulation Properties of Compounds The assay utilizes fluorescent voltage sensing dyes to measure changes in membrane potential using a fluorescent plate reader (e.g., FLIPR III, Molecular Devices, Inc.) as a readout for increase in functional F508del in NIH 3T3 cells. The driving force for the response is the creation of a chloride ion gradient in conjunction with channel activation by a single liquid addition step after the cells have previously been treated with compounds and subsequently loaded with a voltage sensing dye. 2. Identification of Corrector Compounds To identify correctors of F508del, a single-addition HTS assay format was developed. This HTS assay utilizes fluorescent voltage sensing dyes to measure changes in membrane potential on the FLIPR III as a measurement for increase in gating (conductance) of F508del in F508del NIH 3T3 cells. The F508del NIH 3T3 cell cultures were incubated with the corrector compounds at a range of concentrations for 18-24 hours at 37° C., and subsequently loaded with a redistribution dye. The driving force for the response is a Cl^− ion gradient in conjunction with channel activation with forskolin in a single liquid addition step using a fluorescent plate reader such as FLIPR III. […] Solutions […] Chloride-free bath solution: Chloride salts in Bath Solution #1 (above) are substituted with gluconate salts. 4. Cell Culture NIH3T3 mouse fibroblasts stably expressing F508del are used for optical measurements of membrane potential. The cells are maintained at 37° C. in 5% CO2 and 90% humidity in Dulbecco's modified Eagle's medium supplemented with 2 mM glutamine, 10% fetal bovine serum, 1×NEAA, b-ME, 1×pen/strep, and 25 mM HEPES in 175 cm^2 culture flasks. For all optical assays, the cells were seeded at ˜20,000/well in 384-well Matrigel-coated plates. For the correction assays, the cells are cultured at 37° C. with and without compounds for 16-24 hours.

T1 sequence (P13569 with tags, fused parts or gaps DEL508-508): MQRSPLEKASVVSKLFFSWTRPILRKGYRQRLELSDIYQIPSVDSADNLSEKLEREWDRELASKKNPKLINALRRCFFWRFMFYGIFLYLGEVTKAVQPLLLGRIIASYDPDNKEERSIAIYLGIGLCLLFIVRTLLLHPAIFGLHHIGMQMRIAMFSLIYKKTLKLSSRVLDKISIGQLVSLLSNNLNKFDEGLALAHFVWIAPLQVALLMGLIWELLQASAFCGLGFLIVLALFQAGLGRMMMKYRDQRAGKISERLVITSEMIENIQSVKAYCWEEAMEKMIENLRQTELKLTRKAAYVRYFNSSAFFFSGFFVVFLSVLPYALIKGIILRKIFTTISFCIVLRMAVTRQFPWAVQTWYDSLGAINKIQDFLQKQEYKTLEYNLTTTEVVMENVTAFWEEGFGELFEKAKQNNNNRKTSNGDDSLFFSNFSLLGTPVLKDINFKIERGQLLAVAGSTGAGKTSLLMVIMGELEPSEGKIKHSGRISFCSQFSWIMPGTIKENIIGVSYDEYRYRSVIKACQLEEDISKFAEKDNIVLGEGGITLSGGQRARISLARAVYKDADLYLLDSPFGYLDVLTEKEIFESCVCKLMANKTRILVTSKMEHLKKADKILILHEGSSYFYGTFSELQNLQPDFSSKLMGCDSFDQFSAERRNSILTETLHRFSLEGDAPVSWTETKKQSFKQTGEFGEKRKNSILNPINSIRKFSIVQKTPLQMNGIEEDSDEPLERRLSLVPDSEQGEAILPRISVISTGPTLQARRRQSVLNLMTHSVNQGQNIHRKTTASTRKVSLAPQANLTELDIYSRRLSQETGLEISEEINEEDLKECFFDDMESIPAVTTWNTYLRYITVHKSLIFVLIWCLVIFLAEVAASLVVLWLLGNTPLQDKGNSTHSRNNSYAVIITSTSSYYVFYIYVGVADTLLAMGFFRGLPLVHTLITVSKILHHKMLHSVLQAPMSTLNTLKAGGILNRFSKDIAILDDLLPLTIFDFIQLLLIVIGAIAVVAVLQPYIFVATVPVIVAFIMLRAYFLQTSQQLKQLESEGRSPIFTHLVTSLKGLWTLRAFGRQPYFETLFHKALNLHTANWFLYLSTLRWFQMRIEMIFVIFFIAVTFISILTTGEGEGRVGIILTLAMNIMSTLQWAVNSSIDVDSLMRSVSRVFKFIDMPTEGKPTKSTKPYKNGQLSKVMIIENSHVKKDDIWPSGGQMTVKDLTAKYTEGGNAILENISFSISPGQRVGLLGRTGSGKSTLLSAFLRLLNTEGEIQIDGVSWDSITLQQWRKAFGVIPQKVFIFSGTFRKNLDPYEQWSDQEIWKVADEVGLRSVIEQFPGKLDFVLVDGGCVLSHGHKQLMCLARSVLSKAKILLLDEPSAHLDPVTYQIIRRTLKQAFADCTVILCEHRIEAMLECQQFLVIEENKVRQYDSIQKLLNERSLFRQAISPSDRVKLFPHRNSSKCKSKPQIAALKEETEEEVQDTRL

Cc1cccc(C)c1-c1nc(NS(=O)(=O)c2ccccc2)nc2c1CCCC2(C)c1ccccc1 (centres unmarked) [Compound 76, N-[4-(2,6-Dimethylphenyl)-8-methyl-8-phenyl-6,7-dihydro-5H-quinazolin-2-yl]benzenesulfonamide]
pEC50: > 6.00 | Emax: > 60%

Cc1cc(C)cc(-n2c(NS(=O)(=O)c3ccccc3)nc3ccc(C(C)(C)C)cc32)c1 [Compound 92]
Emax: < 30%

Nc1cccc(S(=O)(=O)Nc2nc(-c3ccccc3)c3ccn(-c4ccccc4)c3n2)c1 [Compound 32, 3-Amino-N-(4,7-diphenylpyrrolo[2,3-d]pyrimidin-2-yl)benzenesulfonamide]
pEC50: > 6.00

Cc1cc(C)cc(-c2nc(NS(=O)(=O)c3ccccc3)cc3ccccc23)c1 [Compound 77, N-[1-(3,5-dimethylphenyl)-3-isoquinolyl]benzenesulfonamide]
pEC50: > 6.00

Cc1ccccc1-n1nc(NS(=O)(=O)c2ccccc2)c2ccc(C(C)(C)C)nc21 [Compound 45]
pEC50: > 6.00 | Emax: 30 to 60%

Cc1cc(C)c(Oc2cc(C(C)(C)C)cc3nnc(NS(=O)(=O)c4cccc(N)c4)n23)c(C)c1 [Compound 94]
Emax: < 30%

Cc1cc(C)c(-n2nc(NS(=O)(=O)c3cccc4c3OCCO4)c3ccc(C(C)(C)C)nc32)c(C)c1 [Compound 53]
pEC50: > 6.00 | Emax: 30 to 60%

Cc1ccccc1Oc1nc(NS(=O)(=O)c2cnn(C)c2)nc2c1C(C)(C)CCC2 [Compound 1, N-[5,5-dimethyl-4-(2-methylphenoxy)-7,8-dihydro-6H-quinazolin-2-yl]-1-methyl-pyrazole-4-sulfonamide]
pEC50: 5.52 to 6.00 | Emax: > 60%

Cc1cc(C)c(-n2nc(NS(=O)(=O)c3cn[nH]c3)c3ccc(C(C)(C)C)nc32)c(C)c1 [Compound 35, N-[6-tert-butyl-1-(2,4,6-trimethylphenyl)pyrazolo[3,4-b]pyridin-3-yl]-1H-pyrazole-4-sulfonamide]
pEC50: 5.52 to 6.00 | Emax: > 60%

Cc1cc(C)cc(-n2cc(NS(=O)(=O)c3ccccc3)c3ccc(C(C)(C)C)nc32)c1 [Compound 88]
Emax: < 30%

Cc1cc(C)c(-c2nnc(NS(=O)(=O)c3ccccc3)c3ccc(C(C)(C)C)nc23)c(C)c1 [Compound 90]
Emax: < 30%

CC(C)(C)C1CCc2nc(NS(=O)(=O)c3ccccc3)ncc2C1 (centres unmarked) [Compound 84]
Emax: < 30%

Cc1cccc(C)c1Oc1nc2ccccc2nc1NS(=O)(=O)c1ccccc1 [Compound 11, N-[3-(2,6-Dimethylphenoxy)quinoxalin-2-yl]benzenesulfonamide]
pEC50: 4.52 to 5.52

Cc1ccccc1Oc1nc(NS(=O)(=O)c2cnn(C)c2)nc2c1CCCC2(C)C [Compound 5, N-[8,8-Dimethyl-4-(2-methylphenoxy)-6,7-dihydro-5H-quinazolin-2-yl]-1-methyl-pyrazole-4-sulfonamide]
pEC50: 4.52 to 5.52 | Emax: 30 to 60%

CC(C)C(C)n1nc(NS(=O)(=O)c2ccccc2)c2ccc(C(C)(C)C)nc21 (centres unmarked) [Compound 49]
Emax: < 30%

C=C(C)c1ccc2c(NS(=O)(=O)c3ccccc3)nn(-c3ccccc3C)c2c1 [Compound 72, N-[6-isopropenyl-1-(o-tolyl)indazol-3-yl]benzenesulfonamide]
pEC50: 5.52 to 6.00 | Emax: > 60%

Cn1c(NS(=O)(=O)c2ccccc2)nc2ccccc21 [Compound 86]
Emax: < 30%

Cc1cc(C)cc(-c2nc(NS(=O)(=O)c3ccccc3)nc3ccccc23)c1 [Compound 28, N-[4-(3,5-Dimethylphenyl)quinazolin-2-yl]benzenesulfonamide]
pEC50: 5.52 to 6.00

COc1ccc(OC)c(S(=O)(=O)Nc2nn(-c3c(C)cc(C)cc3C)c3nc(C(C)(C)C)ccc23)c1 [Compound 58]
pEC50: > 6.00 | Emax: 30 to 60%

Cc1cc(C)c(-n2nc(NS(=O)(=O)c3ccccc3C)c3ccc(C(C)(C)C)nc32)c(C)c1 [Compound 69]
Emax: < 30%

COc1cccc(OC)c1S(=O)(=O)Nc1nn(-c2c(C)cc(C)cc2C)c2nc(C(C)(C)C)ccc12 [Compound 54]
Emax: < 30%

CC(C)n1c(NS(=O)(=O)c2ccccc2)nc2ccccc21 [Compound 85]
Emax: < 30%

CCn1nc(NS(=O)(=O)c2ccccc2)c2ccccc21 [Compound 74]
Emax: < 30%

Cc1cc(C)c(Oc2cc(C(C)(C)C)cc3nnc(NS(=O)(=O)c4ccccc4)n23)c(C)c1 [Compound 95]
Emax: < 30%

Cc1cc(C)cc(-n2nc(NS(=O)(=O)c3ccccc3)c3ccc(C(C)(C)C)nc32)c1 [Compound 37, N-[6-tert-Butyl-1-(3,5-dimethylphenyl)pyrazolo[3,4-b]pyridin-3-yl]benzenesulfonamide]
pEC50: > 6.00 | Emax: 30 to 60%

Cc1ccccc1-n1nc(NS(=O)(=O)c2ccccc2)c2ccc(Br)cc21 [Compound 70, N-[6-bromo-1-(o-tolyl)indazol-3-yl]benzenesulfonamide]
pEC50: 5.52 to 6.00 | Emax: 30 to 60%

Cc1cc(C)c(-n2nc(NS(=O)(=O)c3ccccc3Cl)c3ccc(C(C)(C)C)nc32)c(C)c1 [Compound 68]
Emax: < 30%

O=S(=O)(Nc1nc2c(c(Oc3ccccc3)n1)CCC2)c1ccccc1 [Compound 6, N-(4-phenoxy-6,7-dihydro-5H-cyclopenta[d]pyrimidin-2-yl)benzenesulfonamide]
pEC50: 4.52 to 5.52 | Emax: > 60%

O=S(=O)(Nc1nc(-c2ccccc2)c2ccn(-c3ccccc3)c2n1)c1ccccc1 [Compound 29, N-(4,7-Diphenylpyrrolo[2,3-d]pyrimidin-2-yl)benzenesulfonamide]
pEC50: > 6.00

Cc1cc(C)c(-n2nc(NS(=O)(=O)c3ccccc3N)c3ccc(C(C)(C)C)nc32)c(C)c1 [Compound 67]
Emax: < 30%

Cc1cc(C)c(-n2nc(NS(=O)(=O)c3cccc(Cl)c3)c3ccc(C(C)(C)C)nc32)c(C)c1 [Compound 62]
Emax: < 30%

COc1ccc(S(=O)(=O)Nc2nn(-c3c(C)cc(C)cc3C)c3nc(C(C)(C)C)ccc23)cc1 [Compound 64]
Emax: < 30%

Cc1cc(C)c(-n2nc(NS(=O)(=O)c3ncc[nH]3)c3ccc(C(C)(C)C)nc32)c(C)c1 [Compound 56]
pEC50: 5.52 to 6.00 | Emax: 30 to 60%

COc1cccc(-n2nc(NS(=O)(=O)c3ccccc3)c3ccc(C(C)(C)C)nc32)c1 [Compound 50]
pEC50: > 6.00 | Emax: 30 to 60%

COc1cc(OC)cc(S(=O)(=O)Nc2nn(-c3c(C)cc(C)cc3C)c3nc(C(C)(C)C)ccc23)c1 [Compound 57]
Emax: < 30%

O=S(=O)(Nc1nc(Oc2ccccc2)c2ccccc2n1)c1ccccc1 [Compound 31, N-(4-phenoxyquinazolin-2-yl)benzenesulfonamide]
pEC50: 4.52 to 5.52

Cc1ccc(-n2ncc3c2CC(C)(C)CC3NS(=O)(=O)c2ccccc2)cc1 (centres unmarked) [Compound 83]
Emax: < 30%
